Measurements as given in PubChem BioAssay AID248 (DTP/NCI, 2004).
“And” between values parts separate entries of the source, which are not always exact repeats. Identical values can stand only once. Inconclusive results and toxic doses are left out. No stated cut-off is given here; in the data, active means T/C of 150% or more; inactive means T/C below 125%.

Test system: L1210 leukemia ip in BDF1 mice, survival T/C
Assay: NCI In Vivo Anticancer Drug Screen. Data for tumor model L1210 Leukemia (intraperitoneal) in B6D2F1 (BDF1) mice
Conditions: endpoint: mean survival time, higher = longer survival
Method in brief: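 Transplanted-tumor mice were given test agent; controls received vehicle only. Survival readings from the two groups were divided (treated over control).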

[1] = dose: 100.0 mg/kg/injection, schedule: Q04DX002 (ip), vehicle: Klucel (hydroxypropylcellulose) (HPC)
[2] = dose: 200.0 mg/kg/injection, schedule: Q04DX002 (ip), vehicle: Klucel (hydroxypropylcellulose) (HPC)
[3] = dose: 400.0 mg/kg/injection, schedule: Q04DX002 (ip), vehicle: Klucel (hydroxypropylcellulose) (HPC)
[4] = dose: 100.0 mg/kg/injection, schedule: Q01DX001 (ip), vehicle: saline
[5] = dose: 100.0 mg/kg/injection, schedule: Q01DX001 (ip), vehicle: saline with Tween-80
[6] = dose: 200.0 mg/kg/injection, schedule: Q01DX001 (ip), vehicle: saline with Tween-80
[7] = dose: 400.0 mg/kg/injection, schedule: Q01DX001 (ip), vehicle: saline with Tween-80
[8] = dose: 12.5 mg/kg/injection, schedule: Q04DX003 (ip), vehicle: Klucel (hydroxypropylcellulose) (HPC)
[9] = dose: 25.0 mg/kg/injection, schedule: Q04DX003 (ip), vehicle: Klucel (hydroxypropylcellulose) (HPC)
[10] = dose: 50.0 mg/kg/injection, schedule: Q04DX003 (ip), vehicle: Klucel (hydroxypropylcellulose) (HPC)
[11] = dose: 100.0 mg/kg/injection, schedule: Q01DX001 (ip), vehicle: carboxymethylcellulose (CMC)
[12] = dose: 100.0 mg/kg/injection, schedule: Q04DX003 (ip), vehicle: Klucel (hydroxypropylcellulose) (HPC)
[13] = dose: 200.0 mg/kg/injection, schedule: Q01DX001 (ip), vehicle: carboxymethylcellulose (CMC)
[14] = dose: 200.0 mg/kg/injection, schedule: Q04DX003 (ip), vehicle: Klucel (hydroxypropylcellulose) (HPC)
[15] = dose: 400.0 mg/kg/injection, schedule: Q01DX001 (ip), vehicle: carboxymethylcellulose (CMC)
[16] = dose: 400.0 mg/kg/injection, schedule: Q04DX003 (ip), vehicle: Klucel (hydroxypropylcellulose) (HPC)

Measured: T/C

COc1ccc(N2CCNCC2)cc1
inactive: dose: 5.0 mg/kg/injection, schedule: Q01DX001 (ip), vehicle: saline 103 % of control | dose: 10.0 mg/kg/injection, schedule: Q01DX001 (ip), vehicle: saline 103 % of control | dose: 20.0 mg/kg/injection, schedule: Q01DX001 (ip), vehicle: saline 97 % of control | dose: 40.0 mg/kg/injection, schedule: Q01DX001 (ip), vehicle: saline 105 % of control

O=C1OCC/C1=C\OCCc1ccccc1
inactive: [1] 98 % of control | [2] 94 % of control | [3] 94 % of control

C=C1C(=O)OC2CC3(C)C(O)CCC(=C)C3C(OC(C)=O)C12 (centres undefined) (tested in a mixture with another compound)
inactive: [4] 104 % of control

O=C(CNC(=O)c1ccc(Cl)cc1Cl)N/N=C/c1ccc(Cl)c(Cl)c1
inactive: dose: 25.0 mg/kg/injection, schedule: Q01DX009 (ip), vehicle: saline with Tween-80 95 % of control | dose: 50.0 mg/kg/injection, schedule: Q01DX009 (ip), vehicle: saline with Tween-80 91 % of control | dose: 100.0 mg/kg/injection, schedule: Q01DX009 (ip), vehicle: saline with Tween-80 88 % of control

COC(=O)C1=COC(C)C2CN3CCc4c([nH]c5cc(OC)c(OC)cc45)C3CC12 (centres undefined)
inactive: dose: 50.0 mg/kg/injection, schedule: Q01DX Z (ip), vehicle: carboxymethylcellulose (CMC) 103 % of control | dose: 100.0 mg/kg/injection, schedule: Q01DX Z (ip), vehicle: carboxymethylcellulose (CMC) 105 % of control | dose: 200.0 mg/kg/injection, schedule: Q01DX Z (ip), vehicle: carboxymethylcellulose (CMC) 100 % of control | dose: 300.0 mg/kg/injection, schedule: Q01DX Z (ip), vehicle: carboxymethylcellulose (CMC) 105 % of control

COC(=O)NS(=O)(=O)C1=Cc2cccc3cccc1c23
inactive: [1] 103 % of control | [2] 100 % of control | [3] 113 % of control

CN(C)c1ccc(CNc2cccc([N+](=O)[O-])c2)cc1
inactive: [5] 96 % of control | [6] 90 % of control | [7] 95 % of control

CC(C)NC(C)c1c[nH]c2ccccc12 (centres undefined)
inactive: [8] 101 % of control | [9] 97 % of control | [10] 103 % of control

CCC(CO)(CO)[N+](=O)[O-]
inactive: dose: 100.0 mg/kg/injection, schedule: Q04DX003 (ip), vehicle: saline with Tween-80 95 % of control | dose: 200.0 mg/kg/injection, schedule: Q04DX003 (ip), vehicle: saline with Tween-80 91 % of control | dose: 400.0 mg/kg/injection, schedule: Q04DX003 (ip), vehicle: saline with Tween-80 91 % of control

Nc1cnc(N)nc1
inactive: dose: 75.0 mg/kg/injection, schedule: Q01DX Z (ip), vehicle: saline 103 % of control | dose: 150.0 mg/kg/injection, schedule: Q01DX Z (ip), vehicle: saline 111 % of control

O=C(O)c1cccc([N+](=O)[O-])c1[N+](=O)[O-]
inactive: [10] 94 % of control | [11] 95 % of control | [12] 92 % of control | [13] 93 % of control | [14] 103 % of control | [15] 93 % of control | [16] 92 % of control

O/N=C/c1ccc(Cl)cc1
inactive: dose: 50.0 mg/kg/injection, schedule: Q01DX001 (ip), vehicle: saline 97 % of control | [4] 100 % of control | dose: 200.0 mg/kg/injection, schedule: Q01DX001 (ip), vehicle: saline 94 % of control

CNC(=O)Oc1ccccc1CCl
inactive: dose: 50.0 mg/kg/injection, schedule: Q01DX001 (ip), vehicle: Klucel (hydroxypropylcellulose) (HPC) 97 % of control | dose: 100.0 mg/kg/injection, schedule: Q01DX001 (ip), vehicle: Klucel (hydroxypropylcellulose) (HPC) 97 % of control | dose: 200.0 mg/kg/injection, schedule: Q01DX001 (ip), vehicle: Klucel (hydroxypropylcellulose) (HPC) 92 % of control

COc1cccc(/C=N\N=C\c2cccc(OC)c2O)c1O
inactive: [5] 91 % of control | [6] 103 % of control and 105 % of control | [7] 94 % of control and 95 % of control

CN(NC(=O)OCc1ccccc1)C(=O)OCc1ccccc1
inactive: dose: 12.5 mg/kg/injection, schedule: Q01DX009 (ip), vehicle: Klucel (hydroxypropylcellulose) (HPC) 98 % of control | [8] 93 % of control | dose: 25.0 mg/kg/injection, schedule: Q01DX009 (ip), vehicle: Klucel (hydroxypropylcellulose) (HPC) 93 % of control | [9] 103 % of control | dose: 50.0 mg/kg/injection, schedule: Q01DX009 (ip), vehicle: Klucel (hydroxypropylcellulose) (HPC) 108 % of control | [10] 112 % of control | dose: 100.0 mg/kg/injection, schedule: Q01DX009 (ip), vehicle: Klucel (hydroxypropylcellulose) (HPC) 90 % of control | [12] 89 % of control | dose: 200.0 mg/kg/injection, schedule: Q01DX009 (ip), vehicle: Klucel (hydroxypropylcellulose) (HPC) 90 % of control | [14] 106 % of control | [16] 110 % of control

CC(=O)CC(=O)C(F)(F)F.CC(=O)CC(=O)C(F)(F)F.[O]=[V]
inactive: [9] 100 % of control | [10] 107 % of control | [12] 96 % of control

N/N=C(\N)NC(=O)c1ccccc1
inactive: dose: 15.0 mg/kg/injection, schedule: Q01DX Z (ip), vehicle: saline 103 % of control | dose: 30.0 mg/kg/injection, schedule: Q01DX Z (ip), vehicle: saline 97 % of control | dose: 60.0 mg/kg/injection, schedule: Q01DX Z (ip), vehicle: saline 94 % of control | dose: 120.0 mg/kg/injection, schedule: Q01DX Z (ip), vehicle: saline 105 % of control | dose: 240.0 mg/kg/injection, schedule: Q01DX Z (oral), vehicle: saline 108 % of control | dose: 480.0 mg/kg/injection, schedule: Q01DX Z (oral), vehicle: saline 95 % of control | dose: 960.0 mg/kg/injection, schedule: Q01DX Z (oral), vehicle: saline 103 % of control | dose: 1920.0 mg/kg/injection, schedule: Q01DX Z (oral), vehicle: saline 101 % of control

C/C(=C\COc1ccc(C)cc1)CC/C=C(\C)CCC1OC1(C)C (centres undefined)
inactive: dose: 50.0 mg/kg/injection, schedule: Q04DX002 (ip), vehicle: saline with Tween-80 108 % of control | dose: 100.0 mg/kg/injection, schedule: Q04DX002 (ip), vehicle: saline with Tween-80 108 % of control | dose: 200.0 mg/kg/injection, schedule: Q04DX002 (ip), vehicle: saline with Tween-80 92 % of control

ON=C(c1ccccn1)c1ccccn1
inactive: dose: 100.0 mg/kg/injection, schedule: Q01DX009 (ip), vehicle: gum acacia 93 % of control | [12] 97 % of control | dose: 200.0 mg/kg/injection, schedule: Q01DX009 (ip), vehicle: gum acacia 88 % of control | [14] 93 % of control | dose: 400.0 mg/kg/injection, schedule: Q01DX009 (ip), vehicle: gum acacia 98 % of control | [16] 95 % of control

CCC(=O)c1ccc(N=Nc2c(N)nc(N)[nH]c2=O)cc1
inactive: [11] 101 % of control | [13] 108 % of control | [15] 103 % of control
